Data from patent US20150133495A1 (ViroCura Therapeutics, Inc., priority 2013, published 2015).

Test system: HCV replicon (HCV1b sub-genomic, Huh-7 cells)
Assay: HCV replicon RNA replication assay (luciferase reporter)
Format: cell-based, Hepatitis C virus (CON-1 genotype b)
Settings: Hepatitis C virus, Huh-7
Method: All curve fitting was conducted using non-linear regression analyses from PRISM (version 4.0c, GraphPad Inc.) and the determination of Rmax and EC50 or IC50 parameters were obtained from sigmoidal dose-response phase (variable slope) equation.
The replicon HCV1b is generated based on the wild-type sequence CON-1 genotype b (GenBank accession number AJ238799; Lohmann et al., Science 1999, 285: 110-113) and expressed the sub-genomic fragment HCV NS3-NS4A-NS4B-NS5A-NS5B. The replicon contain a hybrid HCV-IRES 5′UTR, a modified luciferase reporter gene expressed as a luciferase-Ubi-neomycin phosphotransferase gene fusion and an EMCV IRES NS3-NS5B subgenomic fragment with its 3′UTR. To generate cell lines harboring the replicon, Huh-7 cells are electroporated with purified in vitro HCV1b RNA transcripts and stable cell lines are selected in the presence of G418. Stable replicon cell lines are established as described in Science 1999, 285: 110-113. The amount of luciferase expressed by selected cells directly correlates with the level of HCV RNA replication, as measured by real-time PCR.
Stable HCV replicon cells are maintained in Dulbecco's Modified Eagle Medium (DMEM) supplemented with 10% FBS and 0.5 mg/ml G418. During the assay, DMEM supplemented with 10% FBS, containing 0.5% DMSO and lacking G418 are used as assay medium. For the assay, cell stocks are trypsinized and diluted in assay medium to distribute 7,500 cells in 96-well plates. The plates are then incubated at 37° until compound addition. Serial dilutions of the test compound are prepared in 100% DMSO, before dilution in assay medium to a final DMSO concentration of 0.5% to generate a concentration dose response curves. A fixed volume from each well of the compound dilution plate is transferred to a corresponding well of the cell culture plate. The cell culture plate is incubated at 37° C. with 5% CO2 for 72 hours. Following the 72 h incubation period, the medium is aspirated from the 96-well assay plate and a volume of 50_l of lysis buffer 100 mM Tris acetate, 20 mM Mg acetate, 2 mM EGTA, 3.6 mM ATP, 1% Brij 58, 0.7%_-mercaptoethanol containing 45_g/ml luciferine (pH 7.9) is added to each well. The luciferase activity is determined using the luciferase substrate and the luminescence is detected on a MicroBeta JET 1450 LSC & Luminescence Counter (Perkin Elmer) instrument. The luminescence in each well of the culture plate is a measure of the amount of HCV RNA replication in the presence of various concentrations of inhibitor. The % inhibition is calculated for each inhibitor concentration and used to determine the concentration that results in 50% inhibition of HCV replication (EC50).

| Compound | EC50 [nM] |
| --- | --- |
| Cc1noc(C)c1C(=O)O/N=C(\N)c1ccc(-c2csnn2)cc1 [Compound 62, reference compound] | 500 to 1000 |
| Cc1onc(-c2ccccc2Cl)c1C(=O)O/N=C1/CCCCN1 [Compound 64, reference compound] | < 500 |
| Cc1noc(C)c1C(=O)O/N=C(\N)c1cccc(C(F)(F)F)c1 [Compound 61, reference compound] | 1000 to 10000 |

Same assay, conditions: Hepatitis C virus, Huh-7, 72 h, read-out: EC50 (Range)

| Compound | EC50 [nM] |
| --- | --- |
| Cc1cccc(C)c1C(=O)O/N=C(\N)c1ccc(-c2csnn2)cc1 [Example 42, (Z)—N′-((2,6-dimethylbenzoyl)oxy)-4-(1,2,3-thiadiazol-4-yl)benzimidamide] | 500 to 1000 |
| CC(C)(C(=O)O/N=C(\N)c1ccc2c(c1)OCO2)c1ccccc1 [Example 6, (Z)—N′-((2-methyl-2-phenylpropanoyl)oxy)benzo[d][1,3]dioxole-5-carboximidamide] | 500 to 1000 |
| Cc1ccc2ccccc2c1C(=O)O/N=C(\N)c1ccc2c(c1)OCO2 [Example 43, (Z)—N′-((2-methyl-1-naphthoyl)oxy)benzo[d][1,3]dioxole-5-carboximidamide] | 500 to 1000 |
| Cc1nc(/C(N)=N\OC(=O)c2c(-c3ccccc3)noc2C)cs1 [Example 30, (E)-2-methyl-N′-((5-methyl-3-phenylisoxazole-4-carbonyl)oxy)thiazole-4-carboximidamide] | 1000 to 10000 |
| Cc1onc(-c2ccccc2Cl)c1C(=O)O/N=C(\N)CCc1ccc(Br)cc1 [Example 10, (Z)-3-(4-bromophenyl)-N′-((3-(2-chlorophenyl)-5-methylisoxazole-4-carbonyl)oxy)propanimidamide] | < 500 |
| Cc1cccc(C)c1C(=O)O/N=C(\N)c1ccc(OCc2ccc(Cl)cc2)cc1 [Example 40, (Z)-4-((4-chlorobenzyl)oxy)-N′-((2,6-dimethylbenzoyl)oxy)benzimidamide] | < 500 |
| N/C(=N\OC(=O)c1c(-c2ccccc2Cl)noc1Cc1ccccc1)c1ccc2c(c1)OCO2 [Example 13, (Z)—N′-((5-benzyl-3-(2-chlorophenyl)isoxazole-4-carbonyl)oxy)benzo[d][1,3]dioxole-5-carboximidamide] | < 500 |
| Cc1onc(-c2ccccc2Cl)c1C(=O)O/N=C(\NCc1cccnc1)c1ccc2c(c1)OCO2 [Example 21, (Z)—N′-((3-(2-chlorophenyl)-5-methylisoxazole-4-carbonyl)oxy)-N-(pyridin-3-ylmethyl)benzo[d][1,3]dioxole-5-carboximidamide] | 500 to 1000 |
| Cc1cccc(C)c1C(=O)O/N=C(\N)Cc1ccc(OCc2ccc(F)cc2)cc1 [Example 37, (Z)—N′-((2,6-dimethylbenzoyl)oxy)-2-(4-((4-fluorobenzyl)oxy)phenyl)acetimidamide] | 500 to 1000 |
| N/C(=N\OC(=O)c1cccc2ccccc12)c1ccc2c(c1)OCO2 [Example 33, (Z)—N′-((1-naphthoyl)oxy)benzo[d][1,3]dioxole-5-carboximidamide] | 500 to 1000 |
| N/C(=N\OC(=O)c1ccccc1Cc1ccccc1)c1ccc2c(c1)OCO2 [Example 44, (Z)—N′-((2-benzylbenzoyl)oxy)benzo[d][1,3]dioxole-5-carboximidamide] | 500 to 1000 |
| Cc1onc(-c2ccccc2Cl)c1C(=O)O/N=C(\N)Cc1nc2ccccc2s1 [Example 24, (Z)-2-(benzo[d]thiazol-2-yl)-N′-((3-(2-chlorophenyl)-5-methylisoxazole-4-carbonyl)oxy)acetimidamide] | 1000 to 10000 |
| COc1ccccc1C/C(N)=N/OC(=O)c1c(-c2ccccc2Cl)noc1C [Example 22] | < 500 |
| Cc1onc(-c2ccccc2Cl)c1C(=O)O/N=C(\N)c1ccc(OCc2ccc(Cl)nc2)cc1 [Example 49, (Z)—N′-((3-(2-chlorophenyl)-5-methylisoxazole-4-carbonyl)oxy)-4-((6-chloropyridin-3-yl)methoxy)benzimidamide] | < 500 |
| CCCCN/C(=N\OC(=O)c1c(-c2ccccc2Cl)noc1C)c1ccc2c(c1)OCO2 [Example 20, (Z)—N-butyl-N′-((3-(2-chlorophenyl)-5-methylisoxazole-4-carbonyl)oxy)benzo[d][1,3]dioxole-5-carboximidamide] | < 500 |
| Cc1cccc(C)c1C(=O)O/N=C(\N)CCc1ccc(Br)cc1 [Example 8, (Z)-3-(4-bromophenyl)-N′-((2,6-dimethylbenzoyl)oxy)propanimidamide] | < 500 |
| COc1ccc(C/C(N)=N/OC(=O)c2c(-c3ccccc3Cl)noc2C)cc1 [Example 23, (Z)—N′-((3-(2-chlorophenyl)-5-methylisoxazole-4-carbonyl)oxy)-2-(4-methoxyphenyl)acetimidamide] | 500 to 1000 |
| COc1ccccc1C/C(N)=N/OC(=O)c1ccccc1-c1ccccc1C(=O)OC(C)C [Example 28, (Z)-isopropyl 2′-((((1-amino-2-(2-methoxyphenyl)ethylidene)amino)oxy)carbonyl)-[1,1′-biphenyl]-2-carboxylate] | < 500 |
| COc1ccc(C/C(N)=N/OC(=O)c2ccccc2-c2ccccc2)cc1 [Example 5, (Z)—N′-(([1,1′-biphenyl]-2-carbonyl)oxy)-2-(4-methoxyphenyl)acetimidamide] | < 500 |
| COc1ccc(C/C(N)=N/OC(=O)c2c(C)cccc2C)c(OC)c1 [Example 2, (Z)-2-(2,4-dimethoxyphenyl)-N′-((2,6-dimethylbenzoyl)oxy)acetimidamide] | < 500 |
| N/C(=N\OC(=O)c1c(-c2ccccc2Cl)noc1C1CC1)c1ccc2c(c1)OCO2 [Example 11, (Z)—N′-((3-(2-chlorophenyl)-5-cyclopropylisoxazole-4-carbonyl)oxy)benzo[d][1,3]dioxole-5-carboximidamide] | < 500 |
| N/C(=N\OC(=O)c1c(-c2ccccc2Cl)noc1-c1ccccc1)c1ccc2c(c1)OCO2 [Example 18, (Z)—N′-((3-(2-chlorophenyl)-5-phenylisoxazole-4-carbonyl)oxy)benzo[d][1,3]dioxole-5-carboximidamide] | 500 to 1000 |
| Cc1onc(-c2ccccc2Cl)c1C(=O)O/N=C(/c1ccc2c(c1)OCO2)N(C)C [Example 19, (Z)—N′-((3-(2-chlorophenyl)-5-methylisoxazole-4-carbonyl)oxy)-N,N-dimethylbenzo[d][1,3]dioxole-5-carboximidamide] | 1000 to 10000 |
| Cc1onc(-c2ccccc2Cl)c1C(=O)O/N=C(\N)c1cccc(Br)c1 [Example 34, (Z)-3-Bromo-N′-((3-(2-chlorophenyl)-5-methylisoxazole-4-carbonyl)oxy)benzimidamide] | 1000 to 10000 |
| COc1ccc(/C(N)=N/OC(=O)c2c(-c3ccccc3Cl)noc2C)cc1 [Example 46, (Z)—N′-((3-(2-chlorophenyl)-5-methylisoxazole-4-carbonyl)oxy)-4-methoxybenzimidamide] | 500 to 1000 |
| N/C(=N\OC(=O)c1conc1-c1ccccc1Cl)c1ccc2c(c1)OCO2 [Example 1, (Z)—N′-((3-(2-chlorophenyl)isoxazole-4-carbonyl)oxy)benzo[d][1,3]dioxole-5-carboximidamide] | 1000 to 10000 |
| COc1ccccc1/C(N)=N/OC(=O)c1c(C)cccc1C [Example 3, (Z)—N′-((2,6-dimethylbenzoyl)oxy)-2-methoxybenzimidamide] | < 500 |
| CC(C(=O)O/N=C(\N)c1ccc2c(c1)OCO2)(c1ccccc1)c1ccccc1 [Example 9, (Z)—N′-((2,2-diphenylpropanoyl)oxy)benzo[d][1,3]dioxole-5-carboximidamide] | < 500 |
